Source: patent publication US11053256B2, “Dihydropyranopyrimidines for the treatment of viral infections” (Janssen Sciences Ireland Unlimited Company, priority 2016, dated 2021)

How the values were obtained:
human TLR7 = molecular target: T1, human TLR7 (Homo sapiens, UniProt Q9NYK1); assay: Human TLR7 cellular reporter assay (HEK293, NFkB-luc); assay type: cell-based; details: HEK293 cells transiently transfected with TLR7 and NFkB-luc; 6 hours incubation; lowest effective concentration
T1 construct: expressed in transfected cells; host or cells: HEK293
T1 sequence (Q9NYK1 27-1049): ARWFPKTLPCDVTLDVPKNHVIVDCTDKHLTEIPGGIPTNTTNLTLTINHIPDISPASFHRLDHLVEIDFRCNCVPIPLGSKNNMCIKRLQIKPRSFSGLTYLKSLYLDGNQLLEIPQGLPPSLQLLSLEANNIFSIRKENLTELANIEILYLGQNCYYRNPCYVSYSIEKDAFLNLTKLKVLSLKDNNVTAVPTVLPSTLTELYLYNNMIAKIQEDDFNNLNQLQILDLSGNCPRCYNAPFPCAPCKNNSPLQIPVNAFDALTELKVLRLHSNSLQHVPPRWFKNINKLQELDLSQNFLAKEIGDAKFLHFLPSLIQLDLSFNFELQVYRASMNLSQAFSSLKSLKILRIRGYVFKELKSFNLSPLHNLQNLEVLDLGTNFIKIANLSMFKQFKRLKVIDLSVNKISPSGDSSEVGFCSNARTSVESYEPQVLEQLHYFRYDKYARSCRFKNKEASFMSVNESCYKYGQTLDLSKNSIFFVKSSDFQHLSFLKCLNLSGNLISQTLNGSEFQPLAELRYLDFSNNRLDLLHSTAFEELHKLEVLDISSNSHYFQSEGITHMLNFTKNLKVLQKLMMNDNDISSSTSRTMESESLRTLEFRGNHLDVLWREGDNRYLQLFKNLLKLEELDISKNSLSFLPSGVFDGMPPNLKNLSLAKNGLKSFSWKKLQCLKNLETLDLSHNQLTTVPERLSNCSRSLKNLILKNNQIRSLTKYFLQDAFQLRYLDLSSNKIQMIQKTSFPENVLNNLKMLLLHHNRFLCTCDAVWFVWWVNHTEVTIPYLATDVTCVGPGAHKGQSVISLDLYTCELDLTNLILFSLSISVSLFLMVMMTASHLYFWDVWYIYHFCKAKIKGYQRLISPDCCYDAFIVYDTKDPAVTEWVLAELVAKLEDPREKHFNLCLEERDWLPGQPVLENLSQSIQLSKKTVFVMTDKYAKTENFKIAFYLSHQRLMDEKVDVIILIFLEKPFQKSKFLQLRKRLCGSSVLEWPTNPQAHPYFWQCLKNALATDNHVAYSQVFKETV
Method: (§1) Assessment of human TLR7 and human TLR8 activity. The ability of compounds to activate human TLR7 and/or TLR8 was assessed in a cellular reporter assay using HEK293 cells transiently transfected with a TLR7 or TLR8 expression vector and NFkB-luc reporter construct.
(§2) Briefly, HEK293 cells were grown in culture medium (DMEM supplemented with 10% FCS and 2 mM glutamine). For transfection of cells in 15 cm dishes, cells were detached with Trypsin-EDTA, transfected with a mix of CMV-TLR7 or TLR8 plasmid (1700 ng), NFkB-luc plasmid (850 ng) and a transfection reagent and incubated for 48 h at 37° C. in a humidified 5% CO2 atmosphere. Transfected cells were then washed in PBS, detached with Trypsin-EDTA and resuspended in medium to a density of 1.25×10^5 cells/mL. Forty microliters of cells were then dispensed into each well in 384-well plates, where 200 nL of compound in 100% DMSO was already present. Following 6 hours incubation at 37° C., 5% CO2, the luciferase activity was determined by adding 15 μL of Steady Lite Plus substrate (Perkin Elmer) to each well and readout performed on a ViewLux ultraHTS microplate imager (Perkin Elmer). Dose response curves were generated from measurements performed in quadruplicates. Lowest effective concentrations (LEC) values, defined as the concentration that induces an effect which is at least two fold above the standard deviation of the assay, were determined for each compound.

human TLR8 = molecular target: T2, human TLR8 (Homo sapiens, UniProt Q9NR97); assay: Human TLR8 cellular reporter assay (HEK293, NFkB-luc); assay type: cell-based; details: HEK293 cells transiently transfected with TLR8 and NFkB-luc; 6 hours incubation; lowest effective concentration
T2 construct: expressed in transfected cells; host or cells: HEK293
T2 sequence (Q9NR97 27-1041): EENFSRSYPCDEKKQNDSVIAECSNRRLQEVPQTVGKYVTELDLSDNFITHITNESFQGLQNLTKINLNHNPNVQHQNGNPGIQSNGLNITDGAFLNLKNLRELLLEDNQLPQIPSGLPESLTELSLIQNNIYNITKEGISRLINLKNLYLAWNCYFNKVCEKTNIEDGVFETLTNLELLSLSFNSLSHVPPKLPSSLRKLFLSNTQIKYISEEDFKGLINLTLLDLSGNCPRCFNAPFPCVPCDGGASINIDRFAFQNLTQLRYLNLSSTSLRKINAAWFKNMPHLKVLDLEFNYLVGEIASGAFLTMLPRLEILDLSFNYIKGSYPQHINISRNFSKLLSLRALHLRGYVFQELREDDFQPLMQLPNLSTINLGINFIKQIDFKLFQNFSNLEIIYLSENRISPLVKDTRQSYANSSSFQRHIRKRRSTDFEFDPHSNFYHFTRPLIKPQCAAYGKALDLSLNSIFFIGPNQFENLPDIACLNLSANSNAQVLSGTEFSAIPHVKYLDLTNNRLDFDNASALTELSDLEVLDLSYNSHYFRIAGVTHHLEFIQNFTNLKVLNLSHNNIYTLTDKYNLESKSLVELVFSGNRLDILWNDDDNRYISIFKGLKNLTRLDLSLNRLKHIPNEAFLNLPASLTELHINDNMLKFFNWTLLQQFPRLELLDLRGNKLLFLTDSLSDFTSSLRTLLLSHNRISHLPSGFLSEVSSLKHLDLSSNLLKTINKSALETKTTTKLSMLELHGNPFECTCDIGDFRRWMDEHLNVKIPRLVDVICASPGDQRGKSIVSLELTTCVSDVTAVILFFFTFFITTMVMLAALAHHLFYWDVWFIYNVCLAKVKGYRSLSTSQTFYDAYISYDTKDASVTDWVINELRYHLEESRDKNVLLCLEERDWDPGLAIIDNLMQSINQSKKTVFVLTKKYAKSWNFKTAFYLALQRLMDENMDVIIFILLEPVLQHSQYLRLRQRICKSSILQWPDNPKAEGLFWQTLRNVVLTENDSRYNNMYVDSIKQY
Method: as §1, §2

Human TLR 7 (LEC) (human TLR7) [µM] | Human TLR 8 (LEC) (human TLR8) [µM] | SMILES
32.5 | 0.1 | CCCC[C@H](CO)Nc1nc(N)nc2c1OCCC2 [Compound 14, (2R)-2-[(2-amino-7,8-dihydro-6H-pyrano[3,2-d]pyrimidin-4-yl)amino]hexan-1-ol]
>100 | 1.4 | CCCC[C@H](CO)Nc1nc(N)nc2c1CCOC2 [Compound 8, (2R)-2-[(2-amino-5,8-dihydro-6H-pyrano[3,4-d]pyrimidin-4-yl)amino]hexan-1-ol]
0.8 | 0.1 | CCCCNc1nc(N)nc2c1OCCC2 [Compound 13, N^4-butyl-7,8-dihydro-6H-pyrano[3,2-d]pyrimidine-2,4-diamine]

Continued, compound first:

SMILES | Human TLR 7 (LEC) (human TLR7) [µM] | Human TLR 8 (LEC) (human TLR8) [µM]
CCCCNc1nc(N)nc2c1CCOC2 [Compound 7, N^4-butyl-5,8-dihydro-6H-pyrano[3,4-d]pyrimidine-2,4-diamine] | 4.7 | 0.5
CCCCNc1nc(N)nc2c1COCC2 [Compound 3, N^4-butyl-7,8-dihydro-5H-pyrano[4,3-d]pyrimidine-2,4-diamine] | 14.8 | 1.0
CCCC[C@H](CO)Nc1nc(N)nc2c1COCC2 [Compound 4, (2R)-2-[(2-amino-7,8-dihydro-5H-pyrano[4,3-d]pyrimidin-4-yl)amino]hexan-1-ol] | >100 | 1.3
